Measured values: patent publication US9113629B2, “4-amino-6-(4-substituted-phenyl)-picolinates and 6-amino-2-(4-substituted-phenyl)-pyrimidine-4-carboxylates and their use as herbicides” (DOW AGROSCIENCES LLC, priority 2013, dated 2015)
Like-named read-outs stand apart in the source and are kept apart here.

What was measured:
[1] = test system: Key Grass and Sedge Weeds as well as Grass Crops; experiment: Post-emergent Test II herbicidal activity (Table 6); format: in vivo; details: post-emergence, 336 h; for pest or weed control at 70 g/ha: application rate 70 g ai/ha; for pest or weed control at 140 g/ha: application rate 140 g ai/ha
How it was run: (§1)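 Foliar application at 187 L/ha to greenhouse-grown seedlings (first or second true leaf); subirrigation thereafter. Visual 0–100% injury at 14 d relative to untreated plants.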

[2] = test system: Key Broadleaf Weed and Crop Species; experiment: Post-emergent Test II herbicidal activity (Table 5); format: in vivo; details: post-emergence, 336 h, post-emergent, 14 days after application; for pest or weed control at 70 g/ha: 70 g ai/ha; for pest or weed control at 140 g/ha: 140 g ai/ha
How it was run: as §1

[3] = Triticum aestivum, TRZSS (wheat), read-out: Visual Growth Reduction (%) 14 Days After Application, TRZSS
[4] = CYPES: yellow nutsedge (Cyperus esculentus), read-out: Visual Growth Reduction (%) 14 Days After Application, CYPES
[5] = DIGSA: crabgrass (Digitaria sanguinalis), read-out: Visual Growth Reduction (%) 14 Days After Application, DIGSA
[6] = ECHCG: barnyardgrass (Echinochloa crus-galli), read-out: Visual Growth Reduction (%) 14 Days After Application, ECHCG
[7] = ORYSA: rice (Oryza sativa), read-out: Visual Growth Reduction (%) 14 Days After Application, ORYSA
[8] = SETFA: giant foxtail (Setaria faberi), read-out: Visual Growth Reduction (%) 14 Days After Application, SETFA
[9] = SORVU: grain sorghum (Sorghum vulgare), read-out: Visual Growth Reduction (%) 14 Days After Application, SORVU
[10] = ZEAMX: maize, corn (Zea mays), read-out: Visual Growth Reduction (%) 14 Days After Application, ZEAMX
[11] = ABUTH: velvetleaf (Abutilon theophrasti), read-out: Visual Growth Reduction (%) 14 Days After Application ABUTH
[12] = AMARE: redroot pigweed (Amaranthus retroflexus), read-out: Visual Growth Reduction (%) 14 Days After Application AMARE
[13] = BRSNN: oilseed-rape, canola (Brassica napus), read-out: Visual Growth Reduction (%) 14 Days After Application BRSNN
[14] = CHEAL: lambsquarters (Chenopodium album), read-out: Visual Growth Reduction (%) 14 Days After Application CHEAL
[15] = EPHHL: wild poinsettia (Euphorbia heterophylla), read-out: Visual Growth Reduction (%) 14 Days After Application EPHHL
[16] = HELAN: sunflower (Helianthus annuus), read-out: Visual Growth Reduction (%) 14 Days After Application HELAN
[17] = VIOTR: wild pansy (Viola tricolor), read-out: Visual Growth Reduction (%) 14 Days After Application VIOTR

SMILES | pest or weed control at 70 g/ha [1, 3] | pest or weed control at 140 g/ha [1, 3] | pest or weed control at 70 g/ha [1, 4] | pest or weed control at 140 g/ha [1, 4] | pest or weed control at 70 g/ha [1, 5] | pest or weed control at 140 g/ha [1, 5] | pest or weed control at 70 g/ha [1, 6] | pest or weed control at 140 g/ha [1, 6] | pest or weed control at 70 g/ha [1, 7] | pest or weed control at 140 g/ha [1, 7] | pest or weed control at 70 g/ha [1, 8] | pest or weed control at 140 g/ha [1, 8] | pest or weed control at 70 g/ha [1, 9] | pest or weed control at 140 g/ha [1, 9] | pest or weed control at 70 g/ha [1, 10] | pest or weed control at 140 g/ha [1, 10] | pest or weed control at 70 g/ha [2, 11] | pest or weed control at 140 g/ha [2, 11] | pest or weed control at 70 g/ha [2, 12] | pest or weed control at 140 g/ha [2, 12] | further results
Nc1cc(-c2cc(F)c(Br)cc2F)nc(C(=O)O)c1Cl [Compound 3] | 60 to 74% | 60 to 74% | 95 to 100% | 95 to 100% | 75 to 84% | 85 to 94% | 85 to 94% | 85 to 94% | 30 to 44% | 45 to 59% | 95 to 100% | 95 to 100% | 85 to 94% | 85 to 94% | 85 to 94% | 85 to 94% | 95 to 100% | 95 to 100% | 95 to 100% | 95 to 100% | pest or weed control at 70 g/ha [2, 13]: 85 to 94%; pest or weed control at 140 g/ha [2, 13]: 95 to 100%; pest or weed control at 70 g/ha [2, 14]: 95 to 100%; pest or weed control at 140 g/ha [2, 14]: 95 to 100%; pest or weed control at 70 g/ha [2, 15]: 95 to 100%; pest or weed control at 140 g/ha [2, 15]: 95 to 100%; pest or weed control at 70 g/ha [2, 16]: 85 to 94%; pest or weed control at 140 g/ha [2, 16]: 85 to 94%; pest or weed control at 70 g/ha [2, 17]: 95 to 100%; pest or weed control at 140 g/ha [2, 17]: 95 to 100%
C=Cc1c(C(=O)OC)nc(-c2ccc(C#N)cc2)c(F)c1N [Compound 107, methyl 4-amino-6-(4-cyanophenyl)-5-fluoro-3-vinylpicolinate] | 0 to 29% | 0 to 29% | 0 to 29% | 60 to 74% | 0 to 29% | 0 to 29% | 0 to 29% | 0 to 29% | 0 to 29% | 0 to 29% | 0 to 29% | 0 to 29% | 0 to 29% | 0 to 29% | 0 to 29% | 0 to 29% | 75 to 84% | 75 to 84% | 0 to 29% | 0 to 29% | pest or weed control at 70 g/ha [2, 13]: 0 to 29%; pest or weed control at 140 g/ha [2, 13]: 0 to 29%; pest or weed control at 70 g/ha [2, 14]: 95 to 100%; pest or weed control at 140 g/ha [2, 14]: 95 to 100%; pest or weed control at 70 g/ha [2, 15]: 95 to 100%; pest or weed control at 140 g/ha [2, 15]: 95 to 100%; pest or weed control at 70 g/ha [2, 16]: 75 to 84%; pest or weed control at 140 g/ha [2, 16]: 85 to 94%; pest or weed control at 70 g/ha [2, 17]: 0 to 29%; pest or weed control at 140 g/ha [2, 17]: 0 to 29%
COC(=O)c1nc(-c2ccc(I)c(F)c2)cc(N)c1Cl [Compound 66, methyl 4-amino-3-chloro-6-(3-fluoro-4-iodophenyl)picolinate] | 0 to 29% | 0 to 29% | 45 to 59% | 95 to 100% | 60 to 74% | 60 to 74% | 0 to 29% | 60 to 74% | 0 to 29% | 0 to 29% | 0 to 29% | 0 to 29% | 75 to 84% | 85 to 94% | 0 to 29% | 0 to 29% | 85 to 94% | 85 to 94% | 95 to 100% | 95 to 100% | pest or weed control at 70 g/ha [2, 13]: 45 to 59%; pest or weed control at 140 g/ha [2, 13]: 45 to 59%; pest or weed control at 70 g/ha [2, 14]: 85 to 94%; pest or weed control at 140 g/ha [2, 14]: 85 to 94%; pest or weed control at 70 g/ha [2, 15]: 95 to 100%; pest or weed control at 140 g/ha [2, 15]: 95 to 100%; pest or weed control at 70 g/ha [2, 16]: 85 to 94%; pest or weed control at 140 g/ha [2, 16]: 85 to 94%; pest or weed control at 70 g/ha [2, 17]: 0 to 29%; pest or weed control at 140 g/ha [2, 17]: 0 to 29%
COC(=O)c1nc(-c2ccc(C(N)=O)cc2)c(F)c(N)c1Cl [Compound 192] | 0 to 29% | 0 to 29% | 0 to 29% | 0 to 29% | 0 to 29% | 0 to 29% | 0 to 29% | 0 to 29% | 0 to 29% | 0 to 29% | 0 to 29% | 0 to 29% | 0 to 29% | 0 to 29% | 0 to 29% | 0 to 29% | 0 to 29% | 0 to 29% | 0 to 29% | 0 to 29% | pest or weed control at 70 g/ha [2, 13]: 0 to 29%; pest or weed control at 140 g/ha [2, 13]: 0 to 29%; pest or weed control at 70 g/ha [2, 14]: 0 to 29%; pest or weed control at 140 g/ha [2, 14]: 0 to 29%; pest or weed control at 70 g/ha [2, 15]: 0 to 29%; pest or weed control at 140 g/ha [2, 15]: 0 to 29%; pest or weed control at 70 g/ha [2, 16]: 0 to 29%; pest or weed control at 140 g/ha [2, 16]: 0 to 29%; pest or weed control at 70 g/ha [2, 17]: 0 to 29%; pest or weed control at 140 g/ha [2, 17]: 0 to 29%
C=Cc1c(C(=O)O)nc(-c2ccc(Br)cc2)c(F)c1N [Compound 117] | 0 to 29% | 0 to 29% | 95 to 100% | 95 to 100% | 0 to 29% | 0 to 29% | 75 to 84% | 75 to 84% | 45 to 59% | 45 to 59% | 0 to 29% | 45 to 59% | 85 to 94% | 85 to 94% | 45 to 59% | 60 to 74% | 95 to 100% | 95 to 100% | 95 to 100% | 95 to 100% | pest or weed control at 70 g/ha [2, 13]: 75 to 84%; pest or weed control at 140 g/ha [2, 13]: 75 to 84%; pest or weed control at 70 g/ha [2, 14]: 95 to 100%; pest or weed control at 140 g/ha [2, 14]: 95 to 100%; pest or weed control at 70 g/ha [2, 15]: 95 to 100%; pest or weed control at 140 g/ha [2, 15]: 95 to 100%; pest or weed control at 70 g/ha [2, 16]: 85 to 94%; pest or weed control at 140 g/ha [2, 16]: 85 to 94%; pest or weed control at 70 g/ha [2, 17]: 0 to 29%; pest or weed control at 140 g/ha [2, 17]: 0 to 29%
